Test: Screening of different concentrations of the chelating agent GLDA (peracetic acid concentration over storage)
Assay type: physicochemical

With `O=C([O-])CC[C@@H](C(=O)[O-])N(CC(=O)[O-])CC(=O)[O-].[Na+].[Na+].[Na+].[Na+]` [GLDA, N,N-bis(carboxymethyl)-L-glutamic acid tetrasodium salt] the “peracetic acid concentration of the aqueous disinfectant solution” value (“peracetic acid concentration” for short) (0.05 wt.-% GLDA in component (B), day 0, 23° C.) was 2314 ppm, the “peracetic acid concentration” value (0.05 wt.-% GLDA in component (B), day 1, 23° C.) was 2220 ppm and the “peracetic acid concentration” value (0.05 wt.-% GLDA in component (B), day 4, 23° C.) was 1847 ppm. For the same molecule, the “peracetic acid concentration” value (0.05 wt.-% GLDA in component (B), day 6, 23° C.) was 1753 ppm, the “peracetic acid concentration” value (0.05 wt.-% GLDA in component (B), day 7, 23° C.) was 1653 ppm and the “peracetic acid concentration” value (0.05 wt.-% GLDA in component (B), day 8, 23° C.) was 1563 ppm. For the same molecule, the “peracetic acid concentration” value (0.05 wt.-% GLDA in component (B), day 9, 23° C.) was 1466 ppm, the “peracetic acid concentration” value (0.05 wt.-% GLDA in component (B), day 15, 23° C.) was 829 ppm and the “peracetic acid concentration” value (0.1 wt.-% GLDA in component (B), day 0, 23° C.) was 2346 ppm. For the same molecule, the “peracetic acid concentration” value (0.1 wt.-% GLDA in component (B), day 1, 23° C.) was 2202 ppm, the “peracetic acid concentration” value (0.1 wt.-% GLDA in component (B), day 4, 23° C.) was 1856 ppm and the “peracetic acid concentration” value (0.1 wt.-% GLDA in component (B), day 6, 23° C.) was 1793 ppm. For the same molecule, the “peracetic acid concentration” value (0.1 wt.-% GLDA in component (B), day 7, 23° C.) was 1682 ppm, the “peracetic acid concentration” value (0.1 wt.-% GLDA in component (B), day 8, 23° C.) was 1636 ppm and the “peracetic acid concentration” value (0.1 wt.-% GLDA in component (B), day 9, 23° C.) was 1566 ppm. The “peracetic acid concentration” value (0.1 wt.-% GLDA in component (B), day 15, 23° C.) was 1075 ppm, the “stabilisation of peracetic acid, comparison of GLDA concentrations” value (0.1 wt.-% GLDA in the stabilizer component (B)) was “best stabilisation” and the “peracetic acid concentration” value (0.5 wt.-% GLDA in component (B), day 0, 23° C.) was 2408 ppm. For the same molecule, the “peracetic acid concentration” value (0.5 wt.-% GLDA in component (B), day 1, 23° C.) was 2113 ppm, the “peracetic acid concentration” value (0.5 wt.-% GLDA in component (B), day 4, 23° C.) was 1821 ppm and the “peracetic acid concentration” value (0.5 wt.-% GLDA in component (B), day 6, 23° C.) was 1718 ppm. For the same molecule, the “peracetic acid concentration” value (0.5 wt.-% GLDA in component (B), day 7, 23° C.) was 1682 ppm, the “peracetic acid concentration” value (0.5 wt.-% GLDA in component (B), day 8, 23° C.) was 1625 ppm and the “peracetic acid concentration” value (0.5 wt.-% GLDA in component (B), day 9, 23° C.) was 1512 ppm. For the same molecule, the “peracetic acid concentration” value (0.5 wt.-% GLDA in component (B), day 15, 23° C.) was 1016 ppm and the “shelf life of the aqueous disinfectant use solution” value (component (B) comprised 0.05 wt.-%, 0.1 wt.-% or 0.5 wt.-% GLDA) was “about 14 days”.

Source: US11140896B2, “Two components disinfecting composition containing peracetic acid and chelating agent” (ECOLAB USA INC., priority 2014, dated 2021)
